Reference: patent US9284271B2, “Compounds for the treatment of neurodegenerative diseases” (Katholieke Universiteit Leuven, K.U. Leuven R&D, priority 2010, dated 2016)

system: M17-TAU P301L cells; experiment: Tau-induced toxicity experiment: LDH leakage of retinoic acid incubated M17-TAU P301L cells; type: cell-based; conditions: Homo sapiens, Neuroblastoma cell, 168 h; reduction of LDH activity of retinoic acid incubated M17-TAU P301L neuroblastoma cells; 7 days incubation; Promega Cytotox 96 assay
Description: A TAU expression plasmid was constructed by sub-cloning the cDNA of human TAU-P301L (encoding for TAU with proline 301 substituted by a leucine residue) into mammalian expression vector pcDNA3.1 resulting in plasmid pcDNA3.1-TAU P301L. Plasmids pcDNA3.1 and pcDNA3.1-TAU P301L were transfected to human neuroblastoma cells ([…]; ATCC No. CRL-2267) and independent clonal lines with the plasmids stably integrated into the genome were selected. […] Expression of the TAU P301L genes in the cell lines was confirmed by Western analysis.
In degenerated or dead cells lactate dehydrogenase (LDH) is leaked out of the cells into the extracellular environment due to a loss of plasma-membrane integrity. This principle was used to determine cytotoxicity by quantifying the level of leaked LDH into the growth medium.
The detailed method for determining TAU cytotoxicity was as follows: From appropriate precultures of M17-3.1 and M17-TAU(P301L) cells were seeded at 2500 cells/cm2 in Optimem Reduced Serum without phenol red (Gibco, Cat. 31985-047) supplemented with 1% fetal calf serum, 1 mM sodium pyruvate, 1× non-essential amino acids, 500 μg/ml G418 0.5× antibiotic/antimycotic. After 3 h of incubation at 37° C./5% CO2 1 volume of Optimem Reduced Serum (same as described above; except without fetal calf serum) supplemented with 2.5 μM retinoic acid (RA) was added. The cells were further incubated for 7 days. Subsequently, LDH activity was determined using Promega Cytotox 96 Non-Radioactive cytotoxicity assay, (Cat. G1780) according the supplier's instructions.
The M17-TAU P301L cell line made it possible to assess the ability of novel compounds to counteract TAU cytotoxicity. […] These measurements were used to calculate EC50 values of table 2.
Exemplary compounds of the present invention are shown in table 2, with their chemical name and their EC50 value (expressed in nM) as determined from example 75 in the Tau-induced toxicity experiment.

Row | Compound | EC50 [nM]
1 | N#Cc1ccccc1-c1ccc(C(=O)NCCc2c[nH]c3ccc(Cl)cc23)cc1 [Cpd044, N-(2-(5-chloro-1H-indol-3-yl)ethyl)-2′-cyanobiphenyl-4-carboxamide] | 75
2 | N#Cc1ccc(-c2cccc(C(=O)NCCc3c[nH]c4ccc(Cl)cc34)c2)cc1 [Cpd052, N-(2-(5-chloro-1H-indol-3-yl)ethyl)-4′-cyanobiphenyl-3-carboxamide] | 112
3 | O=C(NCCc1c[nH]c2ccc(Cl)cc12)c1cccc(-c2cccc(Cl)c2)c1 [Cpd058, 3′-chloro-N-(2-(5-chloro-1H-indol-3-yl)ethyl)biphenyl-3-carboxamide] | 186
4 | COc1ccc(-c2ccccc2C(=O)NCCc2c[nH]c3ccc(Cl)cc23)cc1 [Cpd032, N-(2-(5-chloro-1H-indol-3-yl)ethyl)-4′-methoxybiphenyl-2-carboxamide] | 200
5 | O=C(NCCc1c[nH]c2ccc(Cl)cc12)c1ccccc1-c1ccc(Cl)cc1 [Cpd063, 4′-chloro-N-(2-(5-chloro-1H-indol-3-yl)ethyl)biphenyl-2-carboxamide] | 154
6 | O=C(NCCc1c[nH]c2ccc(F)cc12)c1ccc(-c2ccccc2)cc1 [Cpd003, N-(2-(5-fluoro-1H-indol-3-yl)ethyl)biphenyl-4-carboxamide] | 448
7 | N#Cc1cccc(-c2ccc(C(=O)NCCc3c[nH]c4ccc(Cl)cc34)cc2)c1 [Cpd050, N-(2-(5-chloro-1H-indol-3-yl)ethyl)-3′-cyanobiphenyl-4-carboxamide] | 24
8 | N#Cc1ccccc1-c1cccc(C(=O)NCCc2c[nH]c3ccc(Cl)cc23)c1 [Cpd043, N-(2-(5-chloro-1H-indol-3-yl)ethyl)-2′-cyanobiphenyl-3-carboxamide] | 169
9 | Cc1ccccc1-c1ccccc1C(=O)NCCc1c[nH]c2ccc(Cl)cc12 [Cpd015, N-(2-(5-chloro-1H-indol-3-yl)ethyl)-2′-methylbiphenyl-2-carboxamide] | 381
10 | O=C(NCCc1c[nH]c2ccc(Cl)cc12)c1ccc(-c2ccc(F)cc2)cc1 [Cpd042, N-(2-(5-chloro-1H-indol-3-yl)ethyl)-4′-fluorobiphenyl-4-carboxamide] | 228
11 | O=C(NCCc1c[nH]c2ccc(Cl)cc12)c1ccc(-c2ccncc2)cc1 [Cpd046, N-(2-(5-chloro-1H-indol-3-yl)ethyl)-4-(pyridin-4-yl)benzamide] | 269
12 | COc1ccc(-c2ccc(C(=O)NCCc3c[nH]c4ccc(Cl)cc34)cc2)cc1 [Cpd034, N-(2-(5-chloro-1H-indol-3-yl)ethyl)-4′-methoxybiphenyl-4-carboxamide] | 91
13 | O=C(NCCc1c[nH]c2ccc(Cl)cc12)c1ccc(-c2cccc(Cl)c2)cc1 [Cpd059, 3′-chloro-N-(2-(5-chloro-1H-indol-3-yl)ethyl)biphenyl-4-carboxamide] | 130
14 | O=C(NCCc1c[nH]c2ccc(Cl)cc12)c1ccc(-c2cccc(C(F)(F)F)c2)cc1 [Cpd066, N-(2-(5-chloro-1H-indol-3-yl)ethyl)-3′-(trifluoromethyl)biphenyl-4-carboxamide] | 92
15 | COc1cccc(-c2ccccc2C(=O)NCCc2c[nH]c3ccc(Cl)cc23)c1 [Cpd029, N-(2-(5-chloro-1H-indol-3-yl)ethyl)-3′-methoxybiphenyl-2-carboxamide] | 523
16 | O=C(NCCc1c[nH]c2ccc(Cl)cc12)c1ccccc1-c1cccc(Cl)c1 [Cpd057, 3′-chloro-N-(2-(5-chloro-1H-indol-3-yl)ethyl)biphenyl-2-carboxamide] | 159
